Common to all, as to type: cell-based
The target in test [1] is T1, Ba/F3 cells with EGFR WT (Homo sapiens, UniProt P00533).
T1 construct: expressed in transfected cells; host or cells: Ba/F3 (murine pro-B cells), retroviral transduction, puromycin selection, maintained with EGF
The test is described as follows: EGFR activity: Ba/F3 cell viability (CellTiter-Glo, 72 h), EGFR WT. The following applies: read-out: BaF3 WT IC50. In general terms: In ATP-based viability assays light output follows the ATP content of the culture.

For test [2], the target named is T2, Ba/F3 cells with EGFR exon 20 ASV Ins V769_D770 (Homo sapiens, UniProt P00533, INS769ASV).
T2 construct: expressed in transfected cells; host or cells: Ba/F3 (murine pro-B cells), retroviral transduction, puromycin selection, IL3-independent pool
T2 sequence (P00533 with tags, fused parts or gaps INS769ASV): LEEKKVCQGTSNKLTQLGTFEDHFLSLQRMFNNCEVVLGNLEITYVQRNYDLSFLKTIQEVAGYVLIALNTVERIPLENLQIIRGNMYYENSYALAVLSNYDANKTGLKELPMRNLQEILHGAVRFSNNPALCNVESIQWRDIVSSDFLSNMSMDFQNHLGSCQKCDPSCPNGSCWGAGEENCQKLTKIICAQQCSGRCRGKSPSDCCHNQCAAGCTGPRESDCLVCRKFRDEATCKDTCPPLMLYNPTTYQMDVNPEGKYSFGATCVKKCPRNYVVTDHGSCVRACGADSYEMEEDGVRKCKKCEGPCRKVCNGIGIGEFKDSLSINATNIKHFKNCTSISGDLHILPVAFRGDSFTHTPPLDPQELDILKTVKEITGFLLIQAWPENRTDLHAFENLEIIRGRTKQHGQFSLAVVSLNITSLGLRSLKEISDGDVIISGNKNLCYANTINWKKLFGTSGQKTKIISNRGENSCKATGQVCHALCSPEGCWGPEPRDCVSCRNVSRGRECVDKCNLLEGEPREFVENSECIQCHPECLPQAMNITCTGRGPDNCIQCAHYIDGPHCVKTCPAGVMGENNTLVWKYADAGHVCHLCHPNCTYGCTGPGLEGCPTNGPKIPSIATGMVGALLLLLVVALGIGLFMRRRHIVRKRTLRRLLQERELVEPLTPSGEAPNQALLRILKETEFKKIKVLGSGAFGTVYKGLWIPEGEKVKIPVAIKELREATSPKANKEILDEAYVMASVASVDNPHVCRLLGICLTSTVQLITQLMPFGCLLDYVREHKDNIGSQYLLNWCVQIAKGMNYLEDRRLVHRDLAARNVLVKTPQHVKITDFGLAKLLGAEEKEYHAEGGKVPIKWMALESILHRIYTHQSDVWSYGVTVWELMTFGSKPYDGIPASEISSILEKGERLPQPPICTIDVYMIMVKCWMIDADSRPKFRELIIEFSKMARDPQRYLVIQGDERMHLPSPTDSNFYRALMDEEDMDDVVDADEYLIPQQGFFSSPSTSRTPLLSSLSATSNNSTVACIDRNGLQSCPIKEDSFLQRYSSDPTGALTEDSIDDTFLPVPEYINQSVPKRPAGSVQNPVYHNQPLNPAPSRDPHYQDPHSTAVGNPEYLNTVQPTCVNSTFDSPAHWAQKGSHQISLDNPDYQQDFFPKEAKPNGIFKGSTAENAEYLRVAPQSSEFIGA
The test is described as follows: EGFR activity: Ba/F3 cell viability (CellTiter-Glo, 72 h), EGFR exon 20 ASV insertion. The settings on record: EGFR exon 20 ASV Ins V769_D770, cell viability, read-out: BaF3 ASV IC50.

For test [3], the target named is T3, Ba/F3 cells with EGFR exon 20 NPG Ins D770_N771 (Homo sapiens, UniProt P00533, INS770NPG).
T3 construct: expressed in transfected cells; host or cells: Ba/F3 (murine pro-B cells), retroviral transduction, puromycin selection, IL3-independent pool
T3 sequence (P00533 with tags, fused parts or gaps INS770NPG): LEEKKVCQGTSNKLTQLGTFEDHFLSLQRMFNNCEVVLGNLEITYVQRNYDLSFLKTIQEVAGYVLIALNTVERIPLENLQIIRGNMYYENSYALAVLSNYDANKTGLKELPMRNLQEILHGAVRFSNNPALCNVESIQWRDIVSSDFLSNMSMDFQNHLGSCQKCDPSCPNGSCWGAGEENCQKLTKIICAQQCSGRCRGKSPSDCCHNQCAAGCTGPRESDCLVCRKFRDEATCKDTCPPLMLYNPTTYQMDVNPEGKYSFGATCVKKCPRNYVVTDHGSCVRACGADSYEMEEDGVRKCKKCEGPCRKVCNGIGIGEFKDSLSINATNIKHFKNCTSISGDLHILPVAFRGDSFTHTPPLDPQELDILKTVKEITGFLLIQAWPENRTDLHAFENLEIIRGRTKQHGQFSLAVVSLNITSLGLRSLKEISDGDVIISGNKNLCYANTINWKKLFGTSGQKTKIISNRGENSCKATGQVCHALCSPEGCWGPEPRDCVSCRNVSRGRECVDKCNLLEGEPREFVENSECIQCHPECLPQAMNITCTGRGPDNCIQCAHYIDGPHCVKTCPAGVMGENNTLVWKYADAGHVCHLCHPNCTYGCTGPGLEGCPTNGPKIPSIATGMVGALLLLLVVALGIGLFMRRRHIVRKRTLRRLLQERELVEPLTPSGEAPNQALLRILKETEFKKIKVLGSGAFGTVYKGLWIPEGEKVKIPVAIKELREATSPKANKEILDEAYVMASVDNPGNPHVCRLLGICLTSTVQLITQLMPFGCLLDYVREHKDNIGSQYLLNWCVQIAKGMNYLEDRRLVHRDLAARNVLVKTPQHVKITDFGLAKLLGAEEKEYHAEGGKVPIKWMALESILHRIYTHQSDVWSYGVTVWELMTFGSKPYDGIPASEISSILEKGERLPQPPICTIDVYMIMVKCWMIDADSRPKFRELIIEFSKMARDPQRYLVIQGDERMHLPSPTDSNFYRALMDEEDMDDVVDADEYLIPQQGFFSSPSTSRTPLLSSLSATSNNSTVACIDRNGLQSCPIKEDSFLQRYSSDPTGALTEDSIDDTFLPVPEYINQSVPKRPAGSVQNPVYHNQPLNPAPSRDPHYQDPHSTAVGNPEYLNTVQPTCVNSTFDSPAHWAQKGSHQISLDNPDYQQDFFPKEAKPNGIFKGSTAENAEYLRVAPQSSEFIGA
The test is described as follows: EGFR activity: Ba/F3 cell viability (CellTiter-Glo, 72 h), EGFR exon 20 NPG insertion. The following applies: EGFR exon 20 NPG Ins D770_N771, cell viability, read-out: BaF3 NPG IC50.

Experimental findings from patent US20230364070A1, “PYRROLO[3,2-C]PYRIDIN-4-ONE DERIVATIVES USEFUL IN THE TREATMENT OF CANCER” (Scorpion Therapeutics, Inc., priority 2020, published 2023) are described below.

T1 sequence (P00533 25-1210): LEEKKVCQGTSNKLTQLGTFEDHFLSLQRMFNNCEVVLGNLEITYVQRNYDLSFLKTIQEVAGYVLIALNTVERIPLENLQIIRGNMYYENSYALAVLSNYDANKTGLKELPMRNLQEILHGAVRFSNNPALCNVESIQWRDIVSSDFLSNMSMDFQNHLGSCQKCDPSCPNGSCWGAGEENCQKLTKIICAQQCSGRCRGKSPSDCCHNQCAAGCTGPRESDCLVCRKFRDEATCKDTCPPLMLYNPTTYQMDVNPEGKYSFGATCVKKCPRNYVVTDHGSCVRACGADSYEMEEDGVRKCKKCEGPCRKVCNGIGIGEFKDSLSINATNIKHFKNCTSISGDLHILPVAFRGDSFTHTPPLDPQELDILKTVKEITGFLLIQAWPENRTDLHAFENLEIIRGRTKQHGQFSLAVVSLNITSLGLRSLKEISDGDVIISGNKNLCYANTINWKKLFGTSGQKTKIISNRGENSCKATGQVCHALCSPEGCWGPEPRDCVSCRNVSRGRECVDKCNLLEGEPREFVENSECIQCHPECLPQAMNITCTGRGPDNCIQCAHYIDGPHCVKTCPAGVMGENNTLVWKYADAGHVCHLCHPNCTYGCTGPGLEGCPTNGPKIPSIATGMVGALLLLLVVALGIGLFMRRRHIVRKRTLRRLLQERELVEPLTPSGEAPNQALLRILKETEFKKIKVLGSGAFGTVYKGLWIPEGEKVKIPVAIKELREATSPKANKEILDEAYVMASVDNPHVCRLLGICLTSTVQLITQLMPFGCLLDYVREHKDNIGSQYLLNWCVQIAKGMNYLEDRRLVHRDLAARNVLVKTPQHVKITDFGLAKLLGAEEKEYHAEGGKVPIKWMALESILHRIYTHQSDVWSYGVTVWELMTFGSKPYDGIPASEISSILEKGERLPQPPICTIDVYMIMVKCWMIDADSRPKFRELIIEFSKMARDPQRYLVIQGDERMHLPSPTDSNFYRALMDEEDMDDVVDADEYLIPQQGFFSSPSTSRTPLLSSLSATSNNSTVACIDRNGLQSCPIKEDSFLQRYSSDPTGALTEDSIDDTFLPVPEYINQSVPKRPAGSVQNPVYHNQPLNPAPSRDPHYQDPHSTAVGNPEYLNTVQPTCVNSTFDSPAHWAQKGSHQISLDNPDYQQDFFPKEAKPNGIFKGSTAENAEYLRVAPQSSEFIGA

The term IC50 denotes the point on the concentration scale where inhibition reaches its midpoint. Turning to `COc1c(F)cccc1Nc1c(-c2ccncc2C#C[C@@H]2CCCO2)[nH]c2c1C(=O)NCC2` (single isomer, unassigned) [Compound 148a], the 50% inhibitory concentration (IC50) in test [1] is over 1000 nM; in test [2], 100 to 1000 nM.

On to `COc1c(F)cccc1Nc1c(-c2ccncc2C#CC2CCCO2)[nH]c2c1C(=O)NCC2` (single isomer, unassigned) [Compound 148b], for which the concentration for half-maximal inhibition (IC50) in test [1] is over 1000 nM; in test [2], 100 to 1000 nM.

Take `COc1c(F)cccc1Nc1c(-c2ccncc2OCCOC2CC2)[nH]c2c1C(=O)NCC2` [Compound 135, 2-(3-(2-cyclopropoxyethoxy)pyridin-4-yl)-3-((3-fluoro-2-methoxyphenyl)amino)-1,5,6,7-tetrahydro-4H-pyrrolo[3,2-c]pyridin-4-one]: the concentration for half-maximal inhibition (IC50) in test [1] and in test [3] was over 1000 nM in each case.

Consider `COc1c(Cl)cccc1Nc1c(-c2ccncc2OC[C@@H]2CCCN2S(C)(=O)=O)[nH]c2c1C(=O)NCC2` [Compound 142a, (S)-3-((3-chloro-2-methoxyphenyl)amino)-2-(3-((1-(methylsulfonyl)pyrrolidin-2-yl)methoxy)pyridin-4-yl)-1,5,6,7-tetrahydro-4H-pyrrolo[3,2-c]pyridin-4-one], for which the IC50 in test [1] and in test [3] was 100 to 1000 nM each time.

In the case of `COc1c(F)cccc1Nc1c(-c2ccncc2C#CC(C)(C)OC)[nH]c2c1C(=O)NCC2` [compound 149], the IC50 was over 1000 nM in test [1] and 100 to 1000 nM in test [3].

As for `C=CC(=O)N1CCC[C@H]1COc1cnccc1-c1[nH]c2c(c1Nc1cccc(Cl)c1CC)C(=O)NCC2` [compound 216, 3-[(3-chloro-2-ethylphenyl)amino]-2-(3-{[(2S)-1-(prop-2-enoyl)pyrrolidin-2-yl]methoxy}pyridin-4-yl)-1H,5H,6H,7H-pyrrolo[3,2-c]pyridin-4-one], the IC50 was 100 to 1000 nM in test [1], under 100 nM in test [3] and under 100 nM in test [2].

As to `C=CC(=O)N1CC(C)(C)C[C@@H]1C#Cc1cnccc1-c1[nH]c2c(c1Nc1cccc(Cl)c1OC)C(=O)NCC2` [compound 235, 3-[(3-chloro-2-methoxyphenyl)amino]-2-(3-{2-[(2R)-4,4-dimethyl-1-(prop-2-enoyl)pyrrolidin-2-yl]ethynyl}pyridin-4-yl)-1H,5H,6H,7H-pyrrolo[3,2-c]pyridin-4-one], the IC50 in test [1], in test [3] and in test [2] was under 100 nM throughout.

In the case of `C=CC(=O)N1[C@H](C)CC[C@@H]1C#Cc1cnccc1-c1[nH]c2c(c1Nc1cccc(Cl)c1OC)C(=O)NCC2` [compound 238, 3-[(3-chloro-2-methoxyphenyl)amino]-2-(3-{2-[(2R,5R)-5-methyl-1-(prop-2-enoyl)pyrrolidin-2-yl]ethynyl}pyridin-4-yl)-1H,5H,6H,7H-pyrrolo[3,2-c]pyridin-4-one], the values for the 50% inhibitory concentration (IC50) in test [1], in test [3] and in test [2] were 100 to 1000 nM, under 100 nM and under 100 nM, respectively.

Consider `C=CC(=O)N1[C@H](C)CC[C@H]1C#Cc1cnccc1-c1[nH]c2c(c1Nc1cccc(Cl)c1OC)C(=O)NCC2` [compound 239, 3-[(3-chloro-2-methoxyphenyl)amino]-2-(3-{2-[(2S,5R)-5-methyl-1-(prop-2-enoyl)pyrrolidin-2-yl]ethynyl}pyridin-4-yl)-1H,5H,6H,7H-pyrrolo[3,2-c]pyridin-4-one], for which the half-inhibitory concentration (IC50) in test [1], in test [3] and in test [2] was under 100 nM each time.

Regarding `C=CC(=O)N1[C@H](C)CC[C@@H]1C#Cc1cnccc1-c1[nH]c2c(c1Nc1cccc(F)c1OC)C(=O)NCC2` [compound 256, 3-[(3-fluoro-2-methoxyphenyl)amino]-2-(3-{2-[(2R,5R)-5-methyl-1-(prop-2-enoyl)pyrrolidin-2-yl]ethynyl}pyridin-4-yl)-1H,5H,6H,7H-pyrrolo[3,2-c]pyridin-4-one], the half-inhibitory concentration (IC50) in test [1] was 100 to 1000 nM; in test [3] it was under 100 nM; in test [2], under 100 nM.

Turning to `C=CC(=O)NC1(C#Cc2cnccc2-c2[nH]c3c(c2Nc2cccc(F)c2OC)C(=O)NCC3)CCC1` [compound 262, N-{1-[2-(4-{3-[(3-fluoro-2-methoxyphenyl)amino]-4-oxo-1H,5H,6H,7H-pyrrolo[3,2-c]pyridin-2-yl}pyridin-3-yl)ethynyl]cyclobutyl}prop-2-enamide], the concentration for half-maximal inhibition (IC50) in test [1] is 100 to 1000 nM; in test [3] it was under 100 nM; in test [2], under 100 nM.

In the case of `CC#CC(=O)N1CCOC[C@@H]1COc1cnccc1-c1[nH]c2c(c1Nc1cccc(F)c1OC)C(=O)NCC2` [compound 293, 2-(3-{[(3R)-4-(but-2-ynoyl)morpholin-3-yl]methoxy}pyridin-4-yl)-3-[(3-fluoro-2-methoxyphenyl)amino]-1H,5H,6H,7H-pyrrolo[3,2-c]pyridin-4-one], the IC50 in test [1], in test [3] and in test [2] was over 1000 nM in each case.

As to `COc1c(F)cccc1Nc1c(-c2ccncc2C#C[C@H]2CCCN2C(=O)/C=C/CN(C)C)[nH]c2c1C(=O)NCC2` [compound 303, 2-(3-{2-[(2R)-1-[(2E)-4-(dimethylamino)but-2-enoyl]pyrrolidin-2-yl]ethynyl}pyridin-4-yl)-3-[(3-fluoro-2-methoxyphenyl)amino]-1H,5H,6H,7H-pyrrolo[3,2-c]pyridin-4-one], the IC50 in test [1] was over 1000 nM; in test [3], 100 to 1000 nM; in test [2] it was 100 to 1000 nM.

As for `C=CC(=O)N1CCC[C@]1(C)C#Cc1cnccc1-c1[nH]c2c(c1Nc1cccc(F)c1C)C(=O)NCC2` [compound 304, 3-[(3-fluoro-2-methylphenyl)amino]-2-(3-{2-[(2R)-2-methyl-1-(prop-2-enoyl)pyrrolidin-2-yl]ethynyl}pyridin-4-yl)-1H,5H,6H,7H-pyrrolo[3,2-c]pyridin-4-one], the 50% inhibitory concentration (IC50) in test [1], in test [3] and in test [2] was under 100 nM throughout.

`COc1c(F)cccc1Nc1c(-c2ccncc2C#C[C@H]2CCC[C@H]2OC)[nH]c2c1C(=O)NCC2` [compound 485]: the IC50 in test [1] is 100 to 1000 nM; in test [2], under 100 nM.

Take `COc1c(F)cccc1Nc1c(-c2ccncc2C#C[C@@H]2CCC[C@@H]2OC)[nH]c2c1C(=O)NCC2` [compound 486]: the IC50 in test [1] was over 1000 nM; in test [2], 100 to 1000 nM.

With `COc1c(Cl)cccc1Nc1c(-c2ccncc2C#CC2(OC)COC2)[nH]c2c1C(=O)NCC2` [compound 491], the IC50 is 100 to 1000 nM in test [1] and under 100 nM in test [2].

Regarding `COc1ccccc1C#Cc1cnccc1-c1[nH]c2c(c1Nc1cccc(Cl)c1OC)C(=O)NCC2` [compound 497], the IC50 was 100 to 1000 nM in test [1] and under 100 nM in test [2].

In the case of `Cc1c(F)cccc1Nc1c(-c2ccncc2C#CC2CC2)[nH]c2c1C(=O)NCC2` [compound 498], the half-maximal inhibitory concentration (IC50) in test [1] was over 1000 nM; in test [2], 100 to 1000 nM.

Regarding `COCC#Cc1cnccc1-c1[nH]c2c(c1Nc1cccc(F)c1C)C(=O)NCC2` [compound 500], the half-inhibitory concentration (IC50) is over 1000 nM in test [1] and 100 to 1000 nM in test [2].

On to `COc1ccccc1C#Cc1cnccc1-c1[nH]c2c(c1Nc1cccc(F)c1C)C(=O)NCC2` [compound 501], for which the concentration for half-maximal inhibition (IC50) is 100 to 1000 nM in test [1] and under 100 nM in test [2].

For the compound `COc1ccc(C#Cc2cnccc2-c2[nH]c3c(c2Nc2cccc(F)c2C)C(=O)NCC3)cn1` [compound 502], the concentration for half-maximal inhibition (IC50) is over 1000 nM in test [1] and 100 to 1000 nM in test [2].

Turning to `COc1cccnc1C#Cc1cnccc1-c1[nH]c2c(c1Nc1cccc(F)c1C)C(=O)NCC2` [compound 503], the 50% inhibitory concentration (IC50) in test [1] and in test [2] was 100 to 1000 nM in each case.

Regarding `Cc1c(F)cccc1Nc1c(-c2ccncc2C#CC2CCOCC2)[nH]c2c1C(=O)NCC2` [compound 504], the concentration for half-maximal inhibition (IC50) in test [1] is over 1000 nM; in test [2], 100 to 1000 nM.

Consider `Cc1c(F)cccc1Nc1c(-c2ccncc2C#CCN2CCOCC2)[nH]c2c1C(=O)NCC2` [compound 505], for which the IC50 in test [1] and in test [2] was over 1000 nM throughout.

Turning to `Cc1c(F)cccc1Nc1c(-c2ccncc2C#Cc2cnn(C)c2)[nH]c2c1C(=O)NCC2` [compound 506], the IC50 in test [1] is over 1000 nM; in test [2] it was 100 to 1000 nM.

As to `Cc1c(F)cccc1Nc1c(-c2ccncc2C#CC2(C)COC2)[nH]c2c1C(=O)NCC2` [compound 507], the concentration for half-maximal inhibition (IC50) in test [1] is over 1000 nM; in test [2], 100 to 1000 nM.

As for `Cc1c(F)cccc1Nc1c(-c2ccncc2C#CC2CCOC2)[nH]c2c1C(=O)NCC2` (centres unmarked) [compound 508], the IC50 in test [1] is over 1000 nM; in test [2], 100 to 1000 nM.

On to `Cc1c(F)cccc1Nc1c(-c2ccncc2C#CC2COC2)[nH]c2c1C(=O)NCC2` [compound 509], for which the figures for the IC50 in test [1] and in test [2] were over 1000 nM and 100 to 1000 nM, respectively.

For the compound `C=CC(=O)N1CC(F)(F)C[C@H]1C#Cc1cnccc1-c1[nH]c2c(c1Nc1cccc(Cl)c1OC)C(=O)NCC2` [compound 520], the IC50 in test [1] and in test [2] was under 100 nM each time.

`COC(C)C#Cc1cnccc1-c1[nH]c2c(c1Nc1cccc(F)c1C)C(=O)NCC2` (centres unmarked) [compound 524]: the half-inhibitory concentration (IC50) is over 1000 nM in test [1] and 100 to 1000 nM in test [2].

Take `COc1c(Cl)cccc1Nc1c(-c2ccncc2C#CC2CCC2)[nH]c2c1C(=O)NCC2` [compound 525]: the concentration for half-maximal inhibition (IC50) in test [1] is over 1000 nM; in test [2], under 100 nM.

On to `C=CC(=O)N1CCC1C#Cc1cnccc1-c1[nH]c2c(c1Nc1cccc(F)c1OC)C(=O)NCC2` (centres unmarked) [compound 544], for which the IC50 in test [1] and in test [2] was under 100 nM in each case.

For the compound `COc1c(Cl)cccc1Nc1c(-c2ccncc2C#CC2CC(F)(F)C2)[nH]c2c1C(=O)NCC2` [compound 548], the IC50 in test [1] is over 1000 nM; in test [2], 100 to 1000 nM.
